Measurements as given in patent US8372967B2, “Compounds and methods for modulating expression of GCCR” (Isis Pharmaceuticals, Inc., priority 2006, dated 2013).
Strand notation (5' to 3'): a small letter for the sugar, then the base; units joined by * are phosphorothioate-linked, units joined directly phosphodiester-linked; [ ] holds rarer units or linkages, { } end groups; capitals alone tell only the bases. e = 2'-O-(2-methoxyethyl) (MOE); [5mC] = 5-methylcytosine; d = 2'-deoxy (DNA)

What was measured:
human SGLT2 = target: T1, human SGLT2 (Homo sapiens, UniProt P31639); conditions: Xenopus oocytes; cited from earlier work
T1 construct: host or cells: Xenopus oocytes
T1 sequence (P31639 1-672): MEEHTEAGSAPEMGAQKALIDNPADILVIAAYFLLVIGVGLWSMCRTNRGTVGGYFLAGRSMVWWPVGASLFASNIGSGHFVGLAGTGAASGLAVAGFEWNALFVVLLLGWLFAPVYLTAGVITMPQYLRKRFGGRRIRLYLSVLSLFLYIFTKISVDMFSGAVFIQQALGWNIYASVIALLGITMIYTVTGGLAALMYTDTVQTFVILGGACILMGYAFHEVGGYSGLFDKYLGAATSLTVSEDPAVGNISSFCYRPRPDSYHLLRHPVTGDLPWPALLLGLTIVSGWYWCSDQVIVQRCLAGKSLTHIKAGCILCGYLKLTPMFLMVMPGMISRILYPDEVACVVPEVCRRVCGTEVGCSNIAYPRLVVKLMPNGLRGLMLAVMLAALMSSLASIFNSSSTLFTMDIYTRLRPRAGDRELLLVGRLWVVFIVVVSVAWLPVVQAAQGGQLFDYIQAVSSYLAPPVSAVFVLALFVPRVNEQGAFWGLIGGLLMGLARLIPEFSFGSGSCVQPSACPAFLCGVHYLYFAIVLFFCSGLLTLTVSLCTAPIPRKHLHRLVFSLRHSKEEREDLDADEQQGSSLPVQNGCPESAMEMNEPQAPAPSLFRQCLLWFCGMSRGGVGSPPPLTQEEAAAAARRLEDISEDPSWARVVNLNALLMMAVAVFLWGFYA

mouse SGLT2 mRNA [1] = experiment: Mouse SGLT2 mRNA in kidney, additional 1-10-1 and 2-8-2 MOE gapmers (Table 68); assay type: in vivo; conditions: Balb/c mouse kidney
Description: 1-10-1 and 2-8-2 MOE gapmer short antisense compounds were designed to target different regions of the mouse SGLT2 RNA but have complementarity across species. […] All cytidine residues are 5-methylcytidines.
The short antisense compounds were analyzed for their effect on mouse SGLT2 mRNA levels in vivo. Data was taken from three experiments in which male 6-week old Balb/c mice were dosed twice per week for three weeks with 0.5, 0.1, or 0.02 umol/kg of either a 1-10-1 or 2-8-2 MOE gapmer given by intraperitoneal injection. Mice were sacrificed 48 hours following last administration and evaluated for SGLT2 levels in kidney. Target levels were determined by RT, real-time PCR as described by other examples herein. PCR results were normalized to an internal ISIS control.

mouse SGLT2 mRNA [2] = experiment: Mouse SGLT2 mRNA in kidney, MOE versus Methyleneoxy BNA gapmers (Table 69); assay type: in vivo; conditions: Balb/c mouse kidney
Description: The effect of ISIS 3796921-10-1 MOE gapmer and ISIS 3886252-8-2 MOE gapmer are compared with the effect of ISIS 3921701-10-1 Methyleneoxy BNA Gapmer and ISIS 3921732-8-2 Methyleneoxy BNA Gapmer (see Table 69) on mouse SGLT2 mRNA levels in vivo. Data are taken from three experiments in which male 6-week old Balb/c mice were dosed twice per week for three weeks with 5, 25 and 125 nmol/kg of either the ISIS 3796921-10-1 MOE gapmer or the ISIS 3886252-8-2 MOE gapmer given by intraperitoneal injection. Mice were sacrificed 48 hours following last administration and evaluated for SGLT2 mRNA levels in kidney. Target levels were determined by RT, real-time PCR as described by other examples herein. PCR results were normalized to an internal ISIS control. The data are expressed as percent change (“+” indicates an increase, “−” indicates a decrease) relative to saline treated animals and are illustrated in Table 69.

rat SGLT2 mRNA = experiment: Rat SGLT2 mRNA in kidney, 1-10-1 and 2-8-2 MOE gapmer (Table 70); assay type: in vivo; conditions: Sprague-Dawley rat kidney
Description: The effect of ISIS 3796921-10-1 MOE gapmer and ISIS 388625 MOE 2-8-2 gapmer (see Table 70) on rat SGLT2 mRNA levels in vivo. […] Rats were sacrificed 48 hours following last administration and evaluated for SGLT2 levels in kidney. Target levels were determined by RT, real-time PCR as described by other examples herein. PCR results were normalized to an internal ISIS control.

[3] = Plasma glucose in ZDF rat (Table 71); assay type: in vivo; conditions: ZDF rats, 400 nM/kg i.p. once a week for twelve weeks; compared to PBS and control
Description: (§1) ISIS 388625, 388626 and control oligo ISIS 388628 were analyzed for their effect on ZDF rat plasma glucose levels and HbA1c. The leptin receptor deficient Zucker diabetic fatty (ZDF) rat is a useful model for the investigation of type 2 diabetes. Diabetes develops spontaneously in these male rats at ages 8-10 weeks, and is associated with hyperphagia, polyuria, polydipsia, and impaired weight gain, symptoms which parallel the clinical symptoms of diabetes (Phillips M S, et al., 1996, Nat Genet. 13, 18-19). Six week old ZDF rats were injected intraperitoneally with short antisense compound at a dose of 400 nM/kg once a week for twelve weeks. Data are illustrated in Tables 71 and 72.

[4] = HbA1c status in ZDF rat (Table 72); assay type: in vivo; conditions: ZDF rats, 400 nM/kg i.p. once a week for twelve weeks; compared to PBS and control
Description: as §1

dog SGLT2 mRNA = experiment: Dog SGLT2 mRNA levels in kidney (Table 73); assay type: in vivo; conditions: 1 mg/kg/wk dose
Description: (§2) ISIS 388625 is a 2-8-2 MOE Gapmer with sequence […] (SEQ ID NO: 246) (e.g. see Table 71). The effect of ISIS 388625 on dog SGLT2 mRNA levels. Data are taken from two dosing groups in which a total of nine male beagle dogs were dosed with either one or ten mg/kg/week of ISIS 388625 or saline given by subcutaneous injection twice weekly. On day 46 of the study all dogs were sacrificed and evaluated for SGLT2 levels in kidney. Target levels were determined by quantitative RT, real-time PCR as described by other examples herein. PCR results were normalized to an internal ISIS control.

[5] = Standard glucose tolerance test and urinary glucose excretion in dog; assay type: in vivo; conditions: standard glucose tolerance test, on average, compared to saline controls
Description: as §2
Even greater reduction can be achieved at slightly higher doses. […] Peak plasma glucose levels were decreased by over 50% on average and the subsequent drop in glucose was lessened compared to saline controls in a standard glucose tolerance test.

Row | Compound | transport activity (human SGLT2) | % change in SGLT2 expression relative to saline (mouse SGLT2 mRNA [1]; 0.02 umol/kg i.p. twice per week for three weeks) [%] | % change in SGLT2 expression relative to saline (mouse SGLT2 mRNA [1]; 0.1 umol/kg i.p. twice per week for three weeks) [%] | % change in SGLT2 expression relative to saline (mouse SGLT2 mRNA [1]; 0.5 umol/kg i.p. twice per week for three weeks) [%] | SGLT2 mRNA, percent change relative to saline treated animals (mouse SGLT2 mRNA [2]; 5 nmol/kg i.p. twice per week for three weeks) [%] | SGLT2 mRNA, percent change relative to saline treated animals (mouse SGLT2 mRNA [2]; 25 nmol/kg i.p. twice per week for three weeks) [%] | SGLT2 mRNA, percent change relative to saline treated animals (mouse SGLT2 mRNA [2]; 125 nmol/kg i.p. twice per week for three weeks) [%] | % change in SGLT2 expression relative to saline (rat SGLT2 mRNA; dose 3.125 umol/kg [sic] i.p. twice per week for three weeks) | % change in SGLT2 expression relative to saline (rat SGLT2 mRNA; dose 12.5 umol/kg [sic] i.p. twice per week for three weeks) [%] | % change in SGLT2 expression relative to saline (rat SGLT2 mRNA; dose 50 umol/kg [sic] i.p. twice per week for three weeks) [%] | % change in SGLT2 expression relative to saline (rat SGLT2 mRNA; dose 200 umol/kg [sic] i.p. twice per week for three weeks) [%] | Plasma glucose levels [3] | HbA1C [4] | reduction of SGLT2 mRNA (dog SGLT2 mRNA) | Peak plasma glucose levels decreased [5]
1 | O=C(CCc1ccc(O)cc1)c1c(O)cc(O)cc1O[C@@H]1O[C@H](CO)[C@@H](O)[C@H](O)[C@H]1O [phlorizin] | suppressed |  |  |  |  |  |  |  |  |  |  |  |  |  | 
2 | ISIS 388625: TGTTCCAGCCCA 2-8-2 MOE Gapmer, SGLT2 (eT*eG*dT*dT*d[5mC]*d[5mC]*dA*dG*d[5mC]*d[5mC]*e[5mC]*eA) |  | −65 | −88 | −90 | −18 | −47 | −70 | +25% | −15 | −65 | −80 | significantly reduced | significantly reduced | greater than 80% | over 50%
